Assay results reported in ChEMBL document CHEMBL2021863, “Design and synthesis of new 4-pyrazolin-3-yl-1,2,3-triazoles and 1,2,3-triazol-4-yl-pyrazolin-1-ylthiazoles as potential antimicrobial agents” (2012).
≈ marks a conversion by molar mass, not a printed value.

Experiments:
Format in all cases: functional
[1] = tested on: Staphylococcus aureus; assay: Antimicrobial activity against Staphylococcus aureus ATCC 29213 at 100 ug/ml after 24 hrs by agar well diffusion assay; conditions: ATCC 29213, 24 h, read-out: DIZ
[2] = tested on: Priestia megaterium; assay: Antimicrobial activity against Bacillus megaterium ATCC 9885 at 100 ug/ml after 24 hrs by agar well diffusion assay; conditions: ATCC 9885, 24 h, read-out: DIZ
[3] = tested on: Micrococcus luteus; assay: Antimicrobial activity against Sarcina lutea at 100 ug/ml after 24 hrs by agar well diffusion assay; conditions: read-out: DIZ
[4] = tested on: Klebsiella pneumoniae; assay: Antimicrobial activity against Klebsiella pneumoniae ATCC 13883 at 100 ug/ml after 24 hrs by agar well diffusion assay; conditions: ATCC 13883, 24 h, read-out: DIZ
[5] = tested on: Pseudomonas aeruginosa; assay: Antimicrobial activity against Pseudomonas aeruginosa ATCC 27953 at 100 ug/ml after 24 hrs by agar well diffusion assay; conditions: ATCC 27953, 24 h, read-out: DIZ
[6] = tested on: Escherichia coli; assay: Antimicrobial activity against Escherichia coli ATCC 25922 at 100 ug/ml after 24 hrs by agar well diffusion assay; conditions: ATCC 25922, 24 h, read-out: DIZ
[7] = tested on: Saccharomyces cerevisiae; assay: Antifungal activity against Saccharomyces cerevisiae at 100 ug/ml after 24 hrs by agar well diffusion assay; conditions: read-out: DIZ
[8] = tested on: Candida albicans; assay: Antifungal activity against Candida albicans NRRL Y-477 at 100 ug/ml after 24 hrs by agar well diffusion assay; conditions: NRRL Y-477, 24 h, read-out: DIZ
[9] = tested on: Staphylococcus aureus; assay: Antimicrobial activity against Staphylococcus aureus ATCC 29213 after 24 hrs by two-fold serial dilution method; conditions: ATCC 29213, 24 h
[10] = tested on: Priestia megaterium; assay: Antimicrobial activity against Bacillus megaterium ATCC 9885 after 24 hrs by two-fold serial dilution method; conditions: ATCC 9885, 24 h
[11] = tested on: Micrococcus luteus; assay: Antimicrobial activity against Sarcina lutea after 24 hrs by two-fold serial dilution method
[12] = tested on: Klebsiella pneumoniae; assay: Antimicrobial activity against Klebsiella pneumoniae ATCC 13883 after 24 hrs by two-fold serial dilution method; conditions: ATCC 13883, 24 h
[13] = tested on: Pseudomonas aeruginosa; assay: Antimicrobial activity against Pseudomonas aeruginosa ATCC 27953 after 24 hrs by two-fold serial dilution method; conditions: ATCC 27953, 24 h
[14] = tested on: Escherichia coli; assay: Antimicrobial activity against Escherichia coli ATCC 25922 after 24 hrs by two-fold serial dilution method; conditions: ATCC 25922, 24 h
[15] = tested on: Saccharomyces cerevisiae; assay: Antifungal activity against Saccharomyces cerevisiae by two-fold serial dilution method
[16] = tested on: Candida albicans; assay: Antifungal activity against Candida albicans NRRL Y-477 by two-fold serial dilution method
[17] = tested on: Bacillus subtilis; assay: Antimicrobial activity against Bacillus subtilis ATCC 6633 at 100 ug/ml after 24 hrs by agar well diffusion assay; conditions: ATCC 6633, 24 h, read-out: DIZ
[18] = tested on: Bacillus subtilis; assay: Antimicrobial activity against Bacillus subtilis ATCC 6633 after 24 hrs by two-fold serial dilution method; conditions: ATCC 6633, 24 h

Structure (SMILES) | MIC [9] | MIC [10] | MIC [11] | MIC [12] | MIC [13] | MIC [14] | MIC [15] | MIC [16] | MIC [18] | zone of inhibition at 100 µg/mL [1] | zone of inhibition at 100 µg/mL [2] | zone of inhibition at 100 µg/mL [3] | zone of inhibition at 100 µg/mL [4] | zone of inhibition at 100 µg/mL [5] | zone of inhibition at 100 µg/mL [6] | zone of inhibition at 100 µg/mL [7] | zone of inhibition at 100 µg/mL [8] | zone of inhibition at 100 µg/mL [17]
Cc1ccc(-n2nnc(C3=NNC(c4ccc(C#N)cc4)C3)c2C)cc1 (stereo not given) |  | 33 µg/mL (≈ 96.4 µM) | 8.25 µg/mL (≈ 24.1 µM) | 8.25 µg/mL (≈ 24.1 µM) | 8.25 µg/mL (≈ 24.1 µM) | 8.25 µg/mL (≈ 24.1 µM) | 8.25 µg/mL (≈ 24.1 µM) | 8.25 µg/mL (≈ 24.1 µM) | 33 µg/mL (≈ 96.4 µM) |  | 24 mm | 28 mm | 30 mm | 28 mm | 30 mm | 30 mm | 28 mm | 26 mm
Cc1ccc(-n2nnc(C3=NN(C(=S)Nc4ccccc4)C(c4ccc(F)cc4)C3)c2C)cc1 (stereo not given) | 132 µg/mL (≈ 281 µM) | 16.5 µg/mL (≈ 35.1 µM) | 16.5 µg/mL (≈ 35.1 µM) | 16.5 µg/mL (≈ 35.1 µM) |  |  | 16.5 µg/mL (≈ 35.1 µM) | 16.5 µg/mL (≈ 35.1 µM) | 16.5 µg/mL (≈ 35.1 µM) | 16 mm | 20 mm | 20 mm | 22 mm |  |  | 24 mm | 22 mm | 27 mm
Cc1ccc(-n2nnc(C3=NN(C(=S)Nc4ccccc4)C(c4ccc(C#N)cc4)C3)c2C)cc1 (stereo not given) | 33 µg/mL (≈ 69.1 µM) |  | 33 µg/mL (≈ 69.1 µM) |  | 66 µg/mL (≈ 138 µM) |  | 8.25 µg/mL (≈ 17.3 µM) | 33 µg/mL (≈ 69.1 µM) |  | 20 mm |  | 24 mm |  | 22 mm |  | 24 mm | 22 mm | 
Cc1ccc(-n2nnc(C3=NN(C(=S)NC(=O)c4ccccc4)C(c4ccc(N5CCCCC5)cc4)C3)c2C)cc1 (stereo not given) | 132 µg/mL (≈ 234 µM) | 8.25 µg/mL (≈ 14.6 µM) | 66 µg/mL (≈ 117 µM) |  | 33 µg/mL (≈ 58.5 µM) | 8.25 µg/mL (≈ 14.6 µM) | 8.25 µg/mL (≈ 14.6 µM) | 8.25 µg/mL (≈ 14.6 µM) | 33 µg/mL (≈ 58.5 µM) | 16 mm | 30 mm | 23 mm |  | 26 mm | 32 mm | 30 mm | 30 mm | 24 mm
Cc1ccc(-n2nnc(C3=NN(C(N)=S)C(c4ccc(F)cc4)C3)c2C)cc1 (stereo not given) |  | 132 µg/mL (≈ 335 µM) | 132 µg/mL (≈ 335 µM) |  | 16.5 µg/mL (≈ 41.8 µM) | 16.5 µg/mL (≈ 41.8 µM) | 8.25 µg/mL (≈ 20.9 µM) | 16.5 µg/mL (≈ 41.8 µM) |  |  | 18 mm | 16 mm |  | 26 mm | 22 mm | 30 mm | 26 mm | 

Now from value to molecule, other results behind:

MIC [9] | MIC [10] | MIC [11] | MIC [12] | MIC [13] | MIC [14] | MIC [15] | MIC [16] | MIC [18] | Structure (SMILES) | zone of inhibition at 100 µg/mL [1] | zone of inhibition at 100 µg/mL [2] | zone of inhibition at 100 µg/mL [3] | zone of inhibition at 100 µg/mL [4] | zone of inhibition at 100 µg/mL [5] | zone of inhibition at 100 µg/mL [6] | zone of inhibition at 100 µg/mL [7] | zone of inhibition at 100 µg/mL [8] | zone of inhibition at 100 µg/mL [17]
33 µg/mL (≈ 98.4 µM) | 132 µg/mL (≈ 394 µM) | 66 µg/mL (≈ 197 µM) | 132 µg/mL (≈ 394 µM) | 8.25 µg/mL (≈ 24.6 µM) | 132 µg/mL (≈ 394 µM) | 66 µg/mL (≈ 197 µM) | 132 µg/mL (≈ 394 µM) |  | Cc1ccc(-n2nnc(C3=NNC(c4ccc(F)cc4)C3)c2C)cc1 (stereo not given) | 20 mm | 16 mm | 18 mm | 16 mm | 30 mm | 16 mm | 18 mm | 16 mm | 
132 µg/mL (≈ 330 µM) |  | 33 µg/mL (≈ 82.4 µM) |  |  |  | 66 µg/mL (≈ 165 µM) | 132 µg/mL (≈ 330 µM) | 132 µg/mL (≈ 330 µM) | Cc1ccc(-n2nnc(C3=NNC(c4ccc(N5CCCCC5)cc4)C3)c2C)cc1 (stereo not given) | 18 mm |  | 18 mm |  |  |  | 18 mm | 18 mm | 16 mm
8.25 µg/mL (≈ 18.2 µM) | 8.25 µg/mL (≈ 18.2 µM) | 66 µg/mL (≈ 146 µM) | 16.5 µg/mL (≈ 36.5 µM) | 132 µg/mL (≈ 292 µM) | 8.25 µg/mL (≈ 18.2 µM) | 16.5 µg/mL (≈ 36.5 µM) | 16.5 µg/mL (≈ 36.5 µM) |  | Cc1ccc(-n2nnc(C3=NN(C(=S)Nc4ccccc4)C(c4ccccc4)C3)c2C)cc1 (stereo not given) | 18 mm | 24 mm | 20 mm | 18 mm | 24 mm |  | 26 mm | 24 mm | 26 mm
